PubChem BioAssay (NCI)
Several values for one entry are separate records, joined by “and”; a condition that tells them apart may be missing. Identical values can stand only once.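 These data come from cells grown in 96-well plates and exposed to compound for 48 hours at five concentrations. The concentration for 50% growth inhibition is given as GI50. TGI denotes the concentration required for complete inhibition of growth.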

Assays:
Assay in all cases: growth of human tumour cells (NCI), 48 h
OVCAR-4 ovarian = tested on: OVCAR-4 ovarian
SNB-19 CNS = tested on: SNB-19 CNS
NCI-H460 lung = tested on: NCI-H460 lung
UACC-62 melanoma = tested on: UACC-62 melanoma
HL-60(TB) leukemia = tested on: HL-60(TB) leukemia
PC-3 prostate = tested on: PC-3 prostate
K-562 leukemia = tested on: K-562 leukemia
HCT-15 colon = tested on: HCT-15 colon
COLO 205 colon = tested on: COLO 205 colon
UACC-257 melanoma = tested on: UACC-257 melanoma

Structure (SMILES)	GI50 (OVCAR-4 ovarian) [µM]	TGI (OVCAR-4 ovarian) [µM]	GI50 (SNB-19 CNS) [µM]	TGI (SNB-19 CNS) [µM]	GI50 (NCI-H460 lung) [µM]	TGI (NCI-H460 lung) [µM]	GI50 (UACC-62 melanoma) [µM]	TGI (UACC-62 melanoma)	GI50 (HL-60(TB) leukemia) [µM]	TGI (HL-60(TB) leukemia) [µM]	GI50 (PC-3 prostate)	TGI (PC-3 prostate) [µM]	GI50 (K-562 leukemia) [µM]	TGI (K-562 leukemia) [µM]	GI50 (HCT-15 colon) [µM]	TGI (HCT-15 colon) [µM]	GI50 (COLO 205 colon) [µM]	TGI (COLO 205 colon) [µM]	GI50 (UACC-257 melanoma) [µM]	TGI (UACC-257 melanoma)
COc1cc(-c2cc(/C=C/C(=O)c3ccc(F)c(F)c3)[nH]n2)cc(OC)c1OC	2.2	71.7	3.64	> 100	2.96	8.24	2.38	7.44 µM	2.48	6.03	1.66 µM	5.72	3.31	16.5	3.01	> 100	1.69	3.19	1.75	6.28 µM
CC(C)(C)c1cc(C(=O)Nc2ccccc2C(=O)NCCN)cc(C(C)(C)C)c1	1.89	3.82	1.93	3.75	1.94	3.67	1.83	3.44 µM	2.15	4.46	1.79 µM	3.5	2.23	5.33	1.89	3.45	1.81	3.41	1.9	3.93 µM
CCN(CC)c1ccc(/C=C/C(=O)c2ccc(Nc3nc(Nc4ccccc4)nc(Nc4ccccc4)n3)cc2)cc1	32.3	> 100	41.3	> 100	2.55	17.6	57.4	> 100 µM	18	> 100	3.2 µM	18.6	–	–	2.54	> 100	1.17	21.9	20.4	> 100 µM
COc1ccc(C(O)c2cc3c(N)c(C(=O)Nc4ccc(Cl)cc4)sc3nc2C)cc1 (stereo not given)	2.42	7.47	4.16	44.6	2.3	6.25	1.86	32.8 µM	1.91	9.63	3.27 µM	22.2	0.694	> 100	0.719	12.9	3.99	23	4.99	57.5 µM
COc1cc(/C=C2\C(=O)N(Cc3ccc(Cl)cc3)c3ccccc32)cc(OC)c1OC	4.35	> 49.6	4.78	18	2.82	8.38	2.21	10 µM	1.94	5.44	2.43 µM	17.2	2.78	16.4	1.68	3.43	3.15	8.52	6.04	26.6 µM
CC(C)/C=C1\CCC(CN(C)C)C1=O (stereo not given)	–	30.8	–	21.6	–	40.1	–	32.6 µM	–	4.55	–	14.5	–	7.85	–	4.68	–	1.41	–	10.8 µM
N#CCn1c(=O)c(Oc2ccc(F)cc2F)cc2cnc(NC3CCOCC3)nc21	> 24	> 25	> 25	> 25	> 25	> 25	> 25	> 25 µM	> 25	> 25	> 25 µM	> 25	> 25	> 25	> 25	> 25	> 25	> 25	> 25	> 25 µM
O=C(Nc1ccc(Oc2ccc3nc(NC(=O)c4ccco4)[nH]c3c2)cc1)Nc1cc(C(F)(F)F)ccc1F	1.25	> 13.8	6.95	> 25	1.35	6.85	0.844	5.48 µM	0.823	7.07	1.49 µM	8.59	0.0122	6.11	1.33	> 17.2	3.02	11.4	2.25	8.74 µM
COc1ccc2c(c1)OC(N)=C(C#N)C2c1cc(OC)c(OC)c(OC)c1 (stereo not given)	0.0714	> 100	0.0864	> 100	0.0345	–	0.0343	> 100 µM	0.0256	0.068	0.0498 µM	> 100	0.0338	> 100	0.034	> 100	0.0244	0.061	0.0457	> 100 µM
CC1CC2C3CCC4=CC(=O)C=CC4(C)C3(F)C(O)CC2(C)C1(O)C(=O)COP(=O)(O)O (stereo not given)	> 500	> 500	> 500	> 500	> 500	> 500	> 500	> 500 µM	> 500	> 500	> 500 µM	> 500	> 500	> 500	> 500	> 500	> 500	> 500	> 500	> 500 µM
COc1ccc2nc3cc(Cl)ccc3c(NCCCNCCO)c2c1	0.484	2.87	0.5	3.79	0.275	1.2	0.807	2.54 µM	0.613	2.64	0.544 µM	2.54	0.383	2.4	0.577	3.15	0.241	1.14	1.82	3.48 µM
CC(=O)Nc1ccc(C(=O)CCl)cc1	2.07	4.06	17.2	45.1	10.8	26	8.3	21.6 µM	2.4	5.86	10 µM	22.3	2.48	5.88	2.39	7.6	1.97	3.93	10.9	23.3 µM
C=C1C[C@H]2C=Nc3cc(OCCCOc4cc5c(cc4OC)C(=O)N4CC(=C)C[C@H]4C=N5)c(OC)cc3C(=O)N2C1	< 0.012	0.0191	0.00545	4.39	0.000277	0.544	0.000264	0.000834 µM and < 0.0123 µM	0.000245	–	0.0212 µM and < 0.0138 µM	3.13	–	3.44	0.0231	–	0.00546	0.0343	0.0213	0.0421 µM and 0.0917 µM
CC(C)=CCc1cc2c(cc1O)C1=C(C(=O)C3=C(C1=O)S(=O)(=O)CCN3)C(C=C(C)C)O2 (stereo not given)	0.469	2.44	0.651	2.64	0.454	2.3	0.419	1.21 µM	0.438	1.11	1.6 µM	12.8	2.24	14.6	1.77	4.3	0.64	2.41	0.482	1.5 µM
O=C1Nc2ccc(Cl)cc2/C1=C\c1c(-c2ccc(Cl)cc2)nc2sc(C3CC3)nn12	1.96	5.16	3.59	16.7	3.89	14.1	3.06	14.5 µM	40.8	> 100	5 µM	19.6	7.37	24.7	4.36	17.6	5.77	23.9	3.36	14.4 µM
COc1cc([N+](=O)[O-])c(OC)cc1-c1nc2sc(C)c(C)n2c1/C(N)=N/C(=N)N	–	–	2.33	> 100	> 100	> 100	–	–	> 100	> 100	> 100 µM	> 100	–	–	> 100	> 100	13.6	> 100	1.02	> 100 µM
O=C(Nc1ccc(Oc2ccc(F)cc2)cc1)[C@@H]1C[C@@H](Cc2ccc(F)cc2)CN1C(=O)Cn1ccnn1	6.29	> 69.9	9.45	> 100	5.37	21.4	6.14	20.9 µM	3.7	17.8	4.42 µM	> 37.8	5.61	> 65	5.04	23.1	5.21	16.8	8.04	24.9 µM
O=C1CC(c2c[nH]c3ccc(F)cc23)C(=O)N1 (stereo not given)	> 100	> 100	> 100	> 100	> 100	> 100	> 100	> 100 µM	> 100	> 100	> 100 µM	> 100	> 100	> 100	> 100	> 100	> 100	> 100	> 100	> 100 µM
c1cc(N[C@@H]2CCNC2)nc(-c2cnc3ccc(-c4cn[nH]c4)cn23)c1	2.84	9.92	4.26	34.9	16.7	80.3	5.02	20.3 µM	22.1	66.6	4.99 µM	47.8	3.63	> 55.6	> 100	> 100	3.46	9.85	16.1	53.3 µM
CCOC(=O)CSc1cc(Cl)c(C)cc1S(=O)(=O)/N=C(/N=C/c1ccc([N+](=O)[O-])s1)NNC	20.7	62.4	22.8	80.1	35.1	> 100	14.1	30.8 µM	21.7	53.7	25 µM	> 100	–	–	18.8	47.8	16	34.8	28.7	67.2 µM
Cc1ccccc1N=Nc1c(O)ccc2ccccc12	–	> 100	–	> 100	–	–	–	> 100 µM	–	> 100	–	> 100	–	> 100	–	> 100	–	> 100	–	> 100 µM
CSC1=NC(=Nc2c(C)cccc2C)C2(CCC(C(C)(C)C)CC2)N1c1ccc(Cl)cc1 (stereo not given)	> 100	> 100	> 100	> 100	4.68	> 100	45.3	> 100 µM	7.94	> 100	6.05 µM	> 100	4.76	> 100	7.42	> 100	46.4	> 100	–	–
COc1cc2oc(-c3cccc(C(=O)Nc4ccc(Cl)cc4)c3)cc(=O)c2c(OC)c1OC	3.05	> 100	6.35	> 100	2.76	> 100	2.5	8.65 µM	–	–	3.4 µM	> 100	2.77	> 100	1.61	> 100	1.47	4.04	2.53	5.72 µM
Cc1ccc(CNc2ccc(Br)cc2)cc1	–	–	–	> 100	–	> 100	–	> 100 µM	–	> 100	–	> 100	–	> 100	–	66.1	–	49.7	–	> 100 µM
COc1cccc2c1-c1nc(N)c3c(OC)cccc3c1C2=O	–	> 100	–	–	–	–	–	> 100 µM	–	72.5	–	> 100	–	> 100	–	> 100	–	> 100	–	> 100 µM
O=C(O)C1=C/C(=C(/c2ccccc2)c2cc(C(=O)O)c(O)c3ccccc23)c2ccccc2C1=O	–	> 100	–	> 100	–	> 100	–	> 100 µM	–	–	–	> 100	–	> 100	–	> 100	–	> 100	–	> 100 µM
C[C@@]1([C@H](OC(=O)c2ccccc2)C(N)=O)CO1	37.6	> 100	30.5	93.6	20.6	53	14.9	29.4 µM	–	–	16.6 µM	52.1	5.67	> 100	20.8	54.9	22.5	43	43.7	> 100 µM
